We go through one compound from publication PMC5772648, “Targeted NUDT5 inhibitors block hormone signaling in breast cancer cells” (Nature Communications, 2018).

For assay [1], the target named is T1, NUDT5 in HL-60 cells (Homo sapiens, UniProt Q9UKK9).
T1 construct: endogenous in cells; host or cells: HL-60
The experiment in a line: CETSA melt curve (apparent Tagg). Format: cell-based. The protocol:
For CETSA experiments with cells treated in culture, 1 × 10^6 HL-60 were treated with DMSO (0.1 % v/v final) or 20 µM compound for 3 h at 37 °C and 5% CO2 in a humidified incubator. T47D^WT cells were treated instead with 80 µM TH1659, 15 µM TH5423/5424 and 1.5 µM TH5427. The cells were harvested, washed twice with PBS and resuspended in TBS with protease inhibitors, as above. Heating was identical as before, except that immediately following heating, the cell suspensions were snap frozen in a dry ice/ethanol bath and freeze-thawed, as previously, to lyse cells. Centrifugation at 20 000 × g for 20 min at 4 °C removed cellular debris and protein aggregates, and lysates were prepared for western blotting. […]
Supplementary Figure 6: Thermal shift of NUDT5 with TH5427 by CETSA.
CETSA melt curve comparing DMSO-treated HL-60 cells to those treated with 2.5 or 20 µM TH5427. All points are shown for n=2 experiments and are normalized to SOD1 band intensity as a loading control. Representative, cropped western blots are shown. Apparent Tagg temperatures are shown below. […]

The target of assay [2] is T2, NUDT9 (Homo sapiens, UniProt Q9BW91).
T2 construct: His-tag (N); made in house; host or cells: E. coli BL21 (DE3) R3 pRARE2
T2 sequence (Q9BW91 47-350): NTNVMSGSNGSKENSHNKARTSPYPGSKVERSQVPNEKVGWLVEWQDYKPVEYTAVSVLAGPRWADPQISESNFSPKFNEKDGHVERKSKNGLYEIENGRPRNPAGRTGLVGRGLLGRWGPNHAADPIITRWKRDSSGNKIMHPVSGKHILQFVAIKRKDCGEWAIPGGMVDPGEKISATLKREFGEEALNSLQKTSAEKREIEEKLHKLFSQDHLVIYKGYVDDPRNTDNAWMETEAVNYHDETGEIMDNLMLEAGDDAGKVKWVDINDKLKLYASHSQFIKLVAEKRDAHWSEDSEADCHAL
The experiment in a line: phosphohydrolase selectivity, malachite green assay. It counts as biochemical. Conditions: 100 µM. As for the experimental part:
(§1) The selectivity assay for TH5427 against similar pyrophosphohydrolases was performed with MTH1, NUDT9, NUDT2, NUDT12, NUDT14, NUDT15, NUDT18, ITPase, dCTPase and dUTPase[9]. All analyses were performed by malachite green assay following 30 min incubation at room temperature in reaction buffer (100 mM Tris Acetate, pH 7.5, 40 mM NaCl, 10 mM MgAc, 1 mM DTT) with 100 µM TH5427 and preferred substrates for each enzyme (4.75 nM MTH1 with 100 µM dGTP, 8 nM NUDT15 with 100 µM dGTP, 8 nM NUDT2 with 16 µM AP4A, 2 nM NUDT5 with 50 µM ADPR, 20 nM NUDT9 with 50 µM ADPR, 20 nM NUDT12 with 50 µM NADH, 2 nM NUDT14 with 50 µM ADPR, 200 nM NUDT18 with 50 µM 8-oxo-dGTP, 0.2 nM ITPase with […], 35 nM dCTPase with 35 µM dCTP, and 1 nM dUTPase with 12.5 µM dUTP). MTH1, NUDT15, NUDT18, ITPase, dCTPase and dUTPase reactions were coupled with 0.2 U/mL pyrophosphatase, while NUDT2, NUDT5, NUDT9, NUDT12, and NUDT14 reactions were coupled by bovine intestinal phosphatase (10 U/mL).

The target in assay [3] is T3, NUDT12 (Homo sapiens, UniProt Q9BQG2).
T3 construct: His-tag (N); made in house; host or cells: E. coli BL21 (DE3) R3 pRARE2
The assay is described as above. It counts as biochemical. As for the experimental part:
as §1

The target in assay [4] is T4, dCTPase (Homo sapiens, UniProt Q9H773).
T4 construct: His-tag (N, cleaved yes); made in house; host or cells: E. coli BL21 (DE3) R3 pRARE2
T4 sequence (Q9H773 1-170): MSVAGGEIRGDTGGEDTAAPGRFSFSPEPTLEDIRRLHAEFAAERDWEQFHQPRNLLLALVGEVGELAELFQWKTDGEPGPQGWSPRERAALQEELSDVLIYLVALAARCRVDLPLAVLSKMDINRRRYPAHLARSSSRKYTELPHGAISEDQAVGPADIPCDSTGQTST
The assay is described as above. It counts as biochemical. The protocol:
as §1

In assay [5] the target is T5, NUDT14 (Homo sapiens, UniProt O95848).
T5 construct: His-tag (N); made in house; host or cells: E. coli BL21 (DE3) R3 pRARE2
T5 sequence (O95848 1-222): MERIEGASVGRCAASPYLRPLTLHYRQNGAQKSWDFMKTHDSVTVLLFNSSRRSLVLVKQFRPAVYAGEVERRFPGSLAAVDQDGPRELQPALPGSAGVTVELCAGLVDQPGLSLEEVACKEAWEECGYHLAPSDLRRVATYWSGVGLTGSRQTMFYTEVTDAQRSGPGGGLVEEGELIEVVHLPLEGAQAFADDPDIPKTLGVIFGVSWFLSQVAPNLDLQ
Described as above. It counts as biochemical. The protocol:
as §1

Assay [6] concerns the target T6, purified NUDT5 (Homo sapiens, UniProt Q9UKK9).
T6 construct: His-tag (N); made in house; host or cells: E. coli BL21 (DE3) R3 pRARE2
The experiment in a line: biochemical conversion of 32P-PAR to ATP and AMP by PARG and NUDT5 (TLC). The conditions noted are these: 0.6 µM, with NUDT5, PARG and PPi. As for the experimental part: ^32P-NAD-labeled PAR was prepared as follows: 5 µg of purified GST-PARP1 was incubated with 2 µg of activated calf thymus DNA and 10 mM NAD +/^32P-NAD (Perkin-Elmer) at a ratio of 1:10 for 30 min at 25 °C and brought to a final volume of 100 µL with PARP reaction buffer (50 mM Tris, pH 7.5, 50 mM NaCl, 0.5 mM DTT, 0.1% Triton X-100 and protease inhibitors)[23]. After incubation, 0.4 µg of DNase was added to obtain DNA-free probes and the reaction was precipitated using TCA. The pellet was washed with acetone, dried and resuspended in 100 µl (10 mM Tris-HCl, pH 8.0, 1 mM EDTA, 0.1 % SDS, 100 µg/mL of Proteinase K) and incubated for 1 h at 37 °C, after which radio-labeled PAR was extracted using phenol/chloroform and ethanol precipitation. The pellet was resuspended in 50 µL (10 mM Tris-HCl, pH 8.0, 1 mM EDTA) and used for subsequent biochemical analyses.
Enzymatic conversion of radiolabeled ^32P-PAR by PARG and NUDT5 was performed using purified radio-labeled PAR (as described above) with the addition of recombinant bovine PARG in PAR glycohydroxylation buffer (PGB; 10 mM HEPES, pH 7.5, 150 mM KCl, 10 mM MgCl2)[23]. Recombinant PARG was added at the beginning of the reaction to a 10 µL final volume and incubated for 1 h at 25 °C. Recombinant NUDT5, pyrophosphate and/or TH5427 (0.6 µM) were added as indicated and incubated for an additional hour. […]

T3 sequence (Q9BQG2 whole entry): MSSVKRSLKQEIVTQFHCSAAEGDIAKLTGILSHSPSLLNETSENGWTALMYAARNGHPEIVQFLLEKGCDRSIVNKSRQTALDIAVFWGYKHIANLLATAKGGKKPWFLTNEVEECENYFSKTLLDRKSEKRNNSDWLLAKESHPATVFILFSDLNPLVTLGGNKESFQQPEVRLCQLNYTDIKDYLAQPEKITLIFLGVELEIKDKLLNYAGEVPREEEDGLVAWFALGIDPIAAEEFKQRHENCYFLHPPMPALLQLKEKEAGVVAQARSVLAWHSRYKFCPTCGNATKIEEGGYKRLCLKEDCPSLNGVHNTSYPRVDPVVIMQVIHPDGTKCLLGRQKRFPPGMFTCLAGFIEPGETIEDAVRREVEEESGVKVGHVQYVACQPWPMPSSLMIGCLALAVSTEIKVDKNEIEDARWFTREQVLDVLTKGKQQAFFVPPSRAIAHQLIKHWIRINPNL

As for `Cn1c(=O)c2c(nc(N3CCNCC3)n2Cc2nnc(-c3ccc(Cl)c(Cl)c3)o2)n(C)c1=O` [TH5427], in assay [1], the “shift of NUDT5 apparent Tagg” value was “≈ 8 °C”. For the same compound, in assay [2], the “effect on NUDT9-mediated hydrolysis of ADPR” value is given as “no effect”. Further, the figures for the inhibition at 100 µM in assay [3], in assay [4] and in assay [5] were 66%, 39% and 38%, respectively. Moreover, in assay [6], the “synthesis of ATP and AMP from 32P-PAR” value was “inhibited the biochemical synthesis of ATP and AMP from ^32P-PAR”.
